Laboratory results as given in patent publication US20260256807A1, “SUBSTITUTED PYRAZOLES AND IMIDAZOLES AS OREXIN RECEPTOR ANTAGONISTS COMPOSITION, METHODS FOR TREATING NEUROLOGICAL AND PSYCHOLOGICAL DISORDERS” (HAGER BIOSCIENCES, LLC, priority 2022, published 2026).

What was measured:
human orexin-1 receptor = target: T1, human orexin-1 receptor (Homo sapiens, UniProt O43613); test: Intracellular calcium (FLIPR) antagonist assay, CHO cells expressing human orexin-1 receptor, 3 nM orexin-A; format: cell-based; conditions: 1 uM compound, orexin-A 3 nM; for inhibition at 1 µM: CHO, read-out: OXIR % Inh. @ 1 uM
T1 construct: expressed in transfected cells; host or cells: CHO cells (G418 selection)
T1 sequence (O43613 1-425): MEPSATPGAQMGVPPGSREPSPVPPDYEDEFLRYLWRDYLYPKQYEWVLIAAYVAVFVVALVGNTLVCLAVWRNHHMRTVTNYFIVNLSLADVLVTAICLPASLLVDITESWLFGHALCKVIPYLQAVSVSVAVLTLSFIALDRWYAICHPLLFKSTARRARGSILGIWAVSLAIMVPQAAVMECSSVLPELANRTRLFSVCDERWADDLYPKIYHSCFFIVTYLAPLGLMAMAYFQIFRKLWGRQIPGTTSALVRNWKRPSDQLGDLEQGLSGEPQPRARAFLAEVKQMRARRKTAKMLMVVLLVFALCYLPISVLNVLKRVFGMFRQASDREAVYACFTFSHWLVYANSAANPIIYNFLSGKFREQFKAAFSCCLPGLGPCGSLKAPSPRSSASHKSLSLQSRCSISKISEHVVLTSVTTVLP
Experimental: (§1) Antagonistic activities on both orexin receptors (i.e., to identify Orexin Receptor Antagonists) have been measured for each example compound using the in vitro assays (intracellular calcium measurements) as described herein. Other assays may also be used to identify Orexin Receptor Antagonists as would be understood by those of ordinary skill in the art. Chinese hamster ovary (CHO) cells expressing the human orexin-1 receptor and the human orexin-2 receptor, respectively, are grown in culture medium (Ham F-12 with L-Glutamine) containing 300 μg/mL G418, 100 U/mL penicillin, 100 μg/mL streptomycin and 10% heat inactivated fetal calf serum (FCS). The cells are seeded at 20′000 cells/well into 384-well black clear bottom sterile plates (Greiner). The seeded plates are incubated overnight at 37° C. in 5% CO2. Human orexin-A as an agonist is prepared as 1 mM stock solution in MeOH: water (1:1), diluted in HBSS containing 0.1% bovine serum albumin (BSA), NaHC03: 0.375 g/L and 20 mM HEPES for use in the assay at a final concentration of 3 nM.
(§2) Antagonists were prepared as 10 mM stock solution in DMSO, then diluted in 384-well plates using DMSO followed by a transfer of the dilutions into in HBSS containing 0.1% bovine serum albumin (BSA), NaHC03: 0.375 g/L and 20 mM HEPES. On the day of the assay, 50 μL of staining buffer (HBSS containing 1% FCS, 20 mM HEPES, NaHC03: 0.375 g/L, 5 mM probenecid (Sigma) and 3 μM of the fluorescent calcium indicator fluro-4 AM (1 mM stock solution in DMSO, containing 10% pluronic) is added to each well. The 384-well cell-plates are incubated for 50 min at 37° C. in 5% C02 followed by equilibration at RT for 30 min before measurement. Within the Fluorescent Imaging Plate Reader (FLIPR Tetra, Molecular Devices), potential Orexin Receptor Antagonists were added to the plate in a volume of 10 μl/well, incubated for 120 min and finally 10 μL/well of agonist is added. Fluorescence was measured for each well at 1 second intervals, and the height of each fluorescence peak compared to the height of the fluorescence peak induced by 3 nM orexin-A with vehicle in place of antagonist. The IC50 value (the concentration of compound needed to inhibit 50% of the agonistic response) was determined and normalized using the obtained IC50 value of an on-plate reference compound. Optimized conditions were achieved by adjustment of pipetting speed and cell splitting regime. The calculated IC50 values fluctuate depending on the daily cellular assay performance, as is known to those skilled in the art. In the case where IC50 values have been determined several times for the same compound, the geometric mean has been given.

human orexin-2 receptor = target: T2, human orexin-2 receptor (Homo sapiens, UniProt O43614); test: Intracellular calcium (FLIPR) antagonist assay, CHO cells expressing human orexin-2 receptor, 3 nM orexin-A; format: cell-based; conditions: 1 uM compound, orexin-A 3 nM; for inhibition at 1 µM: CHO, read-out: OX2R % Inh. @ 1uM
T2 construct: expressed in transfected cells; host or cells: CHO cells (G418 selection)
T2 sequence (O43614 1-444): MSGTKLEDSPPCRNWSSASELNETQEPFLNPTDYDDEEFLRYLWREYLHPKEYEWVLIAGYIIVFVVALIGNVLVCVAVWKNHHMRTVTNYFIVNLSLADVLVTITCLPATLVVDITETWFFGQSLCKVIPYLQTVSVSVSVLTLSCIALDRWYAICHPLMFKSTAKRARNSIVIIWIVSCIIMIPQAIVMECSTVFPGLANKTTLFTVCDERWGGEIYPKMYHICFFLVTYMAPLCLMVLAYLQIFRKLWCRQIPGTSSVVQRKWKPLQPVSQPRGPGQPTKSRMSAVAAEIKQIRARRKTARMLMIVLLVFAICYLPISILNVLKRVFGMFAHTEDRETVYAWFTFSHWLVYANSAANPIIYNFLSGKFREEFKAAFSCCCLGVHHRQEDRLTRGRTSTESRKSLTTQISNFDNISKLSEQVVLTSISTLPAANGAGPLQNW
Experimental: as §1, §2

inhibition at 1 µM (human orexin-1 receptor) [%]	inhibition at 1 µM (human orexin-2 receptor) [%]	OXIR % Inh. @ 1 uM (human orexin-1 receptor) [%]	OX2R % Inh. @ 1uM (human orexin-2 receptor) [%]	Structure (SMILES)
98.7	94.9	–	–	O=C(c1c(-c2ccccc2)nn2ccccc12)N1CCCN(c2nc3cc(Cl)ccc3o2)CC1 [Example 1]
64.2	43.4	–	–	O=C(c1c(-c2ccccc2)nn2c1COCC2)N1CCCN(c2nc3cc(Cl)ccc3o2)CC1 [Example 2]
94	71.8	–	–	O=C(c1c(-c2ccccc2)nc2ccccn12)N1CCCN(c2nc3cc(Cl)ccc3o2)CC1 [Example 3]
98.5	94.5	–	–	C[C@@H]1CCN(c2nc3cc(Cl)ccc3o2)CCN1C(=O)c1c(-c2ccccc2)nc2ccccn12 [Example 5]
62.5	33.4	–	–	C[C@@H]1CCN(c2nc3cc(Cl)ccc3o2)CCN1C(=O)c1c(-c2ccccc2)nc2n1CCCC2 [Example 6]
91	54.5	–	–	C[C@@H]1CCN(c2nc3cc(Cl)ccc3o2)CCN1C(=O)c1c(-c2ccccc2)nn2c1COCC2 [Example 7]
98	82.7	–	–	C[C@@H]1CCN(c2nc3cc(Cl)ccc3o2)CCN1C(=O)c1nn2ccccc2c1-c1ccccc1 [Example 8]
49.6	12.2	–	–	C[C@@H]1CCN(c2nc3cc(Cl)ccc3o2)CCN1C(=O)c1nc2n(c1-c1ccccc1)CCCC2 [Example 9]
85.9	55.1	–	–	C[C@@H]1CCN(c2nc3cc(Cl)ccc3o2)CCN1C(=O)c1c(-c2ccccc2)nn2c1CCCC2 [Example 10]
12.2	21.5	–	–	COc1ccc(N2CC[C@@H](C)N(C(=O)c3c(-c4ccccc4)nn4c3COCC4)CC2)nn1 [Example 11]
14.7	25	–	–	COc1ccc(N2CC[C@@H](C)N(C(=O)c3c(-c4ccccc4)nn4c3COCC4)CC2)nc1 [Example 12]
45.1	38.6	–	–	COc1ccc(N2CC[C@@H](C)N(C(=O)c3c(-c4ccccc4)nn4ccccc34)CC2)nn1 [Example 13]
91.6	57.6	–	–	COc1ccc(N2CC[C@@H](C)N(C(=O)c3c(-c4ccccc4)nn4ccccc34)CC2)nc1 [Example 14]
38.7	37.1	–	–	COc1ccc(N2CC[C@@H](C)N(C(=O)c3c(-c4ccccc4)nn4ccccc34)CC2)cn1 [Example 15]
-21.1	3.3	–	–	COc1ccc(N2CC[C@@H](C)N(C(=O)c3c(-c4ccccc4)nn4c3COCC4)CC2)cn1 [Example 16]
96.3	66.7	–	–	C[C@@H]1CCN(c2ccc(C(F)(F)F)cn2)CCN1C(=O)c1c(-c2ccccc2)nn2ccccc12 [Example 17]
82.5	35.5	–	–	C[C@@H]1CCN(c2ccc(C(F)(F)F)cn2)CCN1C(=O)c1c(-c2ccccc2)nn2c1COCC2 [Example 18]
94.5	48.2	–	–	C[C@@H]1CCN(c2ccc(C(F)(F)F)cn2)CCN1C(=O)c1c(-c2ccccc2)nc2ccccn12 [Example 19]
62.1	32.2	–	–	COc1ccc(N2CC[C@@H](C)N(C(=O)c3c(-c4ccccc4)nc4ccccn34)CC2)nc1 [Example 20]
20.9	23.7	–	–	COc1ccc(N2CC[C@@H](C)N(C(=O)c3c(-c4ccccc4)nc4ccccn34)CC2)nn1 [Example 21]

inhibition at 1 µM (human orexin-1 receptor) [%]	inhibition at 1 µM (human orexin-2 receptor) [%]	OXIR % Inh. @ 1 uM (human orexin-1 receptor) [%]	OX2R % Inh. @ 1uM (human orexin-2 receptor) [%]	Structure (SMILES)
15	28.3	–	–	COc1ccc(N2CC[C@@H](C)N(C(=O)c3c(-c4ccccc4)nc4ccccn34)CC2)cn1 [Example 22]
18.6	32.7	–	–	C[C@@H]1CCN(c2ccc(F)cn2)CCN1C(=O)c1c(-c2ccccc2)nc2ccccn12 [Example 23]
44.2	46	–	–	C[C@@H]1CCN(c2ccc(F)cn2)CCN1C(=O)c1c(-c2ccccc2)nn2ccccc12 [Example 24]
11.6	7.7	–	–	C[C@@H]1CCN(c2ccc(F)cn2)CCN1C(=O)c1c(-c2ccccc2)nn2c1COCC2 [Example 25]
1.61	33.8	–	–	Cc1cc(C)nc(N2CC3CN(C(=O)c4c(-c5ccccc5)nc5ccc(F)cn45)CC3C2)n1 (centres unmarked) [Example 26]
6.42	14.2	–	–	Cc1cc(C)nc(N2CC3CN(C(=O)c4c(-c5ccc(F)cc5)nc5ccccn45)CC3C2)n1 (centres unmarked) [Example 27]
18.3	36.6	–	–	Cc1cc(C)nc(N2CC3CN(C(=O)c4c(-c5ccccc5F)nc5ccccn45)CC3C2)n1 (centres unmarked) [Example 28]
–	–	19.54	34.14	Cc1cc(C)nc(N2CC3CN(C(=O)c4c(-c5ccccc5F)nc5ccccn45)CC3C2)n1 (centres unmarked) [Example 29]
28.3	36.8	–	–	Cc1cc(C)nc(N2CC3CN(C(=O)c4c(-c5ccc(F)cc5)nn5ccccc45)CC3C2)n1 (centres unmarked) [Example 30]
8.04	3.74	–	–	Cc1cc(C)nc(N2CC3CN(C(=O)c4nc5ccccn5c4-c4ccc(F)cc4)CC3C2)n1 (centres unmarked) [Example 31]
4.01	12.1	–	–	Cc1cc(C)nc(N2CC3CN(C(=O)c4nc5ccccn5c4-c4ccccc4F)CC3C2)n1 (centres unmarked) [Example 32]
5	17.6	–	–	Cc1cc(C)nc(N2CC3CN(C(=O)c4nn5ccccc5c4-c4ccc(F)cc4)CC3C2)n1 (centres unmarked) [Example 33]
2.36	31.4	–	–	Cc1cc(C)nc(N2CC3CN(C(=O)c4nn5ccccc5c4-c4ccccc4F)CC3C2)n1 (centres unmarked) [Example 34]
59.1	22.5	–	–	O=C(c1c(-c2ccccc2)nc2ccc(F)cn12)N1CC2CN(c3ccc(C(F)(F)F)cn3)CC2C1 (centres unmarked) [Example 35]
35	23.6	–	–	O=C(c1c(-c2ccccc2)nc2cc(F)ccn12)N1CC2CN(c3ccc(C(F)(F)F)cn3)CC2C1 (centres unmarked) [Example 36]
5.33	46.9	–	–	Cc1cc(C)nc(N2CC3CN(C(=O)c4c(-c5ccccc5)nc5cc(C(F)(F)F)ccn45)CC3C2)n1 (centres unmarked) [Example 37]
6.86	3.32	–	–	Cc1cc(C)nc(N2CC3CN(C(=O)c4ccccc4-c4cnc5ccccn45)CC3C2)n1 (centres unmarked) [Example 38]
14.9	–	–	29.13	Cc1cc(C)nc(N2CC3CN(C(=O)c4c(-c5ccc(F)cc5)nn5c4COCC5)CC3C2)n1 (centres unmarked) [Example 39]
–	–	11.58	7.18	Cc1cc(C)nc(N2CC3CN(C(=O)c4c(-c5ccc(F)cc5)nn5c4COCC5)CC3C2)n1 (centres unmarked) [Example 40]
6	11.5	–	–	Cc1cc(C)nc(N2CC3CN(C(=O)c4c(-c5ccccc5)nn5c4COCC5)CC3C2)n1 (centres unmarked) [Example 41]
